# Results taken from paper PMC12563652 (International Journal of Molecular Sciences, 2025).
# Legend:
# HepG2 cells = assay: Glucose consumption (Amplex Red assay) in HepG2 cells; format: cell-based, human; conditions: 10 µM; relative to vehicle-treated cells
# Method: The HepG2 human hepatocellular carcinoma cell line (ATCC® HB-8065™) was cultured in DMEM supplemented with 10% FBS, 100 µg/mL streptomycin, and 100 IU/mL penicillin at 37 °C in 5% CO2. Cells were seeded in 96-well plates at a density of 10,000 cells/well and used for experiments 24 h after plating.
# Stock solutions of test compounds were prepared at a concentration of 10 mM in dimethyl sulfoxide (DMSO). At least 1 mg of each substance was carefully measured and mixed with the right amount of DMSO. A series of dilutions were made in DMSO and then further diluted in phosphate-buffered saline before being introduced into the cell culture medium. Precipitation or opalescence was assessed prior to application.
# The glucose uptake was measured with the Amplex® Red Glucose/Glucose Oxidase Assay Kit from Thermo Fisher Scientific, following the guidelines provided by the maker. Cell culture supernatants were collected and incubated with a reaction mix containing 100 μM Amplex® Red reagent, 0.2 U/mL horseradish peroxidase (HRP), and 1 U/mL glucose oxidase at room temperature for 30 min in the dark. Fluorescence was measured at 530 nm excitation and 590 nm emission using the POLARstar Omega plate reader (BMG Labtech).
# human TAAR1 = biological target: T1, human TAAR1 (Homo sapiens, UniProt Q96RJ0); assay: TAAR1 antagonist activity, Hit Hunter cAMP assay; format: cell-based; conditions: n.a. = no activity at 10–5 M; read-out: TAAR1 Ant EC50
# T1 sequence (Q96RJ0 1-339): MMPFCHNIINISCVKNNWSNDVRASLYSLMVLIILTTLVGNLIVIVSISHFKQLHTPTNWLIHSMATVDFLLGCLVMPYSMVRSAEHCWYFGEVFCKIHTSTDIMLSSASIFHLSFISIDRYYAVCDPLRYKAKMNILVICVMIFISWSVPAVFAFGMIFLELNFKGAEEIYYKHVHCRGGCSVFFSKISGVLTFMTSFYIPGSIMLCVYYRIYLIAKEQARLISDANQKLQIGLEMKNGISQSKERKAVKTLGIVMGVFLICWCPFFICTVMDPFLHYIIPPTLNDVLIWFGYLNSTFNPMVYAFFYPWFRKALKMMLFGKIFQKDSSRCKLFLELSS
# C57BL/6 mice = assay: Inhibition of gastric emptying (mouse model, phenol red); format: in vivo; conditions: 5 mg/kg b.w. alone
# Method: Fifty male C57BL/6 mice (22–27 g) were housed in standard cages while maintaining a 12:12-h light/dark cycle, with food and water available ad libitum. The experimental procedures were performed from 10:00 a.m. to 14:00 p.m.
# The experiment was conducted according to Miyasaka et al. and Kotańska et al., with some minor modifications. Mice were subjected to a 20 h food deprivation and a 2 h water deprivation prior to testing. The animals received a vehicle (0.25 mL/mouse) alone or along with various compounds: JP-14 (10 mg/kg b. w.), RT (5 mg/kg body weight), metformin (100 mg/kg b. w.), or loperamide (reference compound; 10 mg/kg b. w.) via gastric gavage. Following a 45 min interval, phenol red (0.5 mL, 0.05% w/v) combined with glucose (1 g/kg body weight) was administered through the same route. Additionally, each group received an intraperitoneal injection of heparin (2500 U/mouse) 20 min prior to the collection of stomach contents. Seven mice treated with the vehicle were sacrificed immediately after the phenol red administration to serve as a standard control (representing 100% phenol red in the stomach at 0 min), establishing a baseline for maximum absorbance (100%). The leftover mice were sacrificed 30 min later. The stomachs were removed and homogenized using an OMNI homogenizer (OMNI International Company, Kennesaw, GA, USA), with 10 mL of 0.1 N NaOH. To 5 mL of homogenate, 0.5 mL of 20% w/v solution of trichloroacetic acid was incorporated to precipitate the proteins. Subsequently, the samples were centrifuged at 600× g for 15 min at a temperature of 20 °C, and 0.25 mL of supernatant was mixed with 1 mL of 0.5 N NaOH to achieve maximum color intensity. The concentration of phenol red was measured using spectrophotometry, with absorbance evaluated at a wavelength of 560 nm (MuLTISKAN.GO, Thermo Fisher Scientific Inc., Waltham, MA USA). For each mouse, the percentage of gastric emptying (GE %) was calculated using the following equation:(1) GE%=(Ac0−Ab)/(Ac0−Ac30)×100% where: Ac0 is the absorbance of the control gastric sample collected immediately after dye administration, and Ac30 is the absorbance of the control gastric sample collected 30 min after dye administration, i.e., Ac0–Ac30 = 100% gastric emptying.
# [1] = system: platelet aggregation in rat whole blood; assay: In vitro collagen-induced platelet aggregation in rat whole blood (impedance aggregometry); format: cell-based; conditions: 100 µM, collagen 1.6 µg/mL
# Method: In vitro platelet aggregation assays were conducted using freshly collected whole blood from rats, utilizing the Multiplate platelet function analyzer (Roche Diagnostics, Mannheim, Germany)—a five-channel device that measures electrical impedance, following methods described previously. Upon stimulation, platelets adhere to and aggregate on dual metal sensors within the test cuvette, causing an increase in electrical resistance, which corresponds to the number of platelets attached to the electrodes.
# Blood was collected from the carotid artery of the rat into tubes coated with hirudin (S-Monovette, Sarstedt, Germany). A volume of 300 μL of the anticoagulated blood was mixed with 300 μL of prewarmed isotonic saline that contained the test compound or a vehicle control (0.1% DMSO) and incubated at 37 °C for 3 min under continuous stirring. Aggregation was triggered by adding collagen (final concentration: 1.6 µg/mL). Platelet activity was monitored for 6 min. Multiplate V2.04 software calculated the area under the curve (AUC) for each measurement to determine average platelet response.
compound,measurement,setting,value
N#Cc1c(C(F)(F)F)cc(-c2ccc(Cl)cc2)nc1SCC(=O)Nc1ncccn1 [RTI-7470-44],increase in glucose consumption (uptake),HepG2 cells,no significant changes
same,EC50,human TAAR1,168 ± 50.7 nM
same,effect on gastric emptying,C57BL/6 mice,did not affect emptying
same,reduction of collagen-induced platelet aggregation,[1],41.75%
